Measurements reported in ChEMBL document CHEMBL1201862, “PubChem BioAssay data set” (2004).
The source made the active and inactive calls.

Legend:
Assay type in all cases: functional
[1] = biological target: T1, C-C chemokine receptor type 6 (Homo sapiens, UniProt P51684); experiment: CCR6 receptor antagonists, dose response, cell-based, luminescent beta-arrestin readout (AID 504728)
T1 sequence (P51684 whole entry): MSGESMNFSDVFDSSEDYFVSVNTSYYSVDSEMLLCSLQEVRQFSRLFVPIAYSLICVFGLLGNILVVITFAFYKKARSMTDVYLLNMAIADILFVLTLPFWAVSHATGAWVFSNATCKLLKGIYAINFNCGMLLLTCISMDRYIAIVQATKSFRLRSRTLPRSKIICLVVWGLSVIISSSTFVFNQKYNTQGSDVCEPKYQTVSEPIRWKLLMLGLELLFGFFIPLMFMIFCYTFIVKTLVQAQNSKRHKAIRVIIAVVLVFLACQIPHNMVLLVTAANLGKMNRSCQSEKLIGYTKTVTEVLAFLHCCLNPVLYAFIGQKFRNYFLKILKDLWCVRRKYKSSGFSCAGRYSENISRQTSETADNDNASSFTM

Beta-galactosidase = Beta-galactosidase (Escherichia coli, UniProt Q8VNN2); experiment: beta-galactosidase enzyme inhibitors and activators, dose response, artefact control for CCR6 antagonist project, biochemical, E. coli enzyme, set 3 (AID 504712)
Chain of Beta-galactosidase (Q8VNN2 whole entry): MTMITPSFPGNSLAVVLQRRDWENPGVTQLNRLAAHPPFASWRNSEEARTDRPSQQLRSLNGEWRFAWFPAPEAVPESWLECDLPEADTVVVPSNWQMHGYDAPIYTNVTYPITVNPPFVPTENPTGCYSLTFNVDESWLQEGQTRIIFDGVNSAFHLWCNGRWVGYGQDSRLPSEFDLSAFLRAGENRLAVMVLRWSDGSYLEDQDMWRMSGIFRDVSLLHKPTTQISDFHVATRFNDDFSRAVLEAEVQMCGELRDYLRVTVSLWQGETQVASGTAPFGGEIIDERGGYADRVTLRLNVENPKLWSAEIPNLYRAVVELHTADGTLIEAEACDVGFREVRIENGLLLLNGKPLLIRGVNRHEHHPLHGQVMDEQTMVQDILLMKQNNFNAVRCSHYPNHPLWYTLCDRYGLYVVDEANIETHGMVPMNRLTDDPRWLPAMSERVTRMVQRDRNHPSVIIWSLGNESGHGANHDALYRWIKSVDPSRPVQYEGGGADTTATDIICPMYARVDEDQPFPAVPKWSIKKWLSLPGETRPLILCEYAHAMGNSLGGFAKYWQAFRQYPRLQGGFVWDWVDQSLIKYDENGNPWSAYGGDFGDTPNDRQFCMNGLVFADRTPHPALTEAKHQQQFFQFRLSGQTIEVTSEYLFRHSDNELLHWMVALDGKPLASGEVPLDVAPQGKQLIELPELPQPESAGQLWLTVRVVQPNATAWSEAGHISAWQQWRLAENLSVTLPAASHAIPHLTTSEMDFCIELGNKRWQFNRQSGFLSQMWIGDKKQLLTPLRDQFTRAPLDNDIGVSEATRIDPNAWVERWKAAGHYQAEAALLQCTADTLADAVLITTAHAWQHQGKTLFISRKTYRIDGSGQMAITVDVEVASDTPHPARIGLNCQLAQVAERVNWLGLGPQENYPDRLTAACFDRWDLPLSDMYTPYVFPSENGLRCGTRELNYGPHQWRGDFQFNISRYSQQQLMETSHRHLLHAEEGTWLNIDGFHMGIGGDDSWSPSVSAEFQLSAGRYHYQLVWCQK

Hexokinase HKDC1 = biological target: T2, Hexokinase HKDC1 (Homo sapiens, UniProt Q2TB90); experiment: HKDC1 hexokinase inhibitors, dose response, biochemical, W721R variant (AID 504729)
T2 sequence (Q2TB90 whole entry): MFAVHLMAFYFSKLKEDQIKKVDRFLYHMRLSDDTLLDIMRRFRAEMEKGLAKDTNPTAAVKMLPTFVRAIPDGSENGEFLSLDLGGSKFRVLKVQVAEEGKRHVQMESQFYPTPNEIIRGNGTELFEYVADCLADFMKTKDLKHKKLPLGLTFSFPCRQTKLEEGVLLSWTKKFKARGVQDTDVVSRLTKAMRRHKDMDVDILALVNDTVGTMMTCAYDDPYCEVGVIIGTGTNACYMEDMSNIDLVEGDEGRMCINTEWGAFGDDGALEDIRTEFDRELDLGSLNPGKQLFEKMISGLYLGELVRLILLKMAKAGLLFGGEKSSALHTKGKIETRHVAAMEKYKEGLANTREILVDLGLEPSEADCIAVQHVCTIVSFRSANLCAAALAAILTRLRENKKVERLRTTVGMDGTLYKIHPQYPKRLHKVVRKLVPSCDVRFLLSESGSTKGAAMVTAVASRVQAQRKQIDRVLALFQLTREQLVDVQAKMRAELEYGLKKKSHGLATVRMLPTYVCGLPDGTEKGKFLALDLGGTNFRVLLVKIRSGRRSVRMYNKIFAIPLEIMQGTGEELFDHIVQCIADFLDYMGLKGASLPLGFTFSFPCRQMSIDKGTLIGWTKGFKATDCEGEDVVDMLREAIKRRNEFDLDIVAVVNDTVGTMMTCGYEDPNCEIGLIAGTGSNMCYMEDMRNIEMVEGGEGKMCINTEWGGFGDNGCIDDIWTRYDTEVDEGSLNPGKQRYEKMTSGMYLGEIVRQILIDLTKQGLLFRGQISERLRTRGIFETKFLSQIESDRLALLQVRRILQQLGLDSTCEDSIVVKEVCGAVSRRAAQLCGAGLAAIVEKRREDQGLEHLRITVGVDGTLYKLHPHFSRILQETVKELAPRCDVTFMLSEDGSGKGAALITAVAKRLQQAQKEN

Cysteine protease ATG4B = biological target: T3, Cysteine protease ATG4B (Homo sapiens, UniProt Q9Y4P1);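 further: Fluorescence-based dose-response confirmation assay measuring inhibition of ATG4B activity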
T3 sequence (Q9Y4P1 whole entry): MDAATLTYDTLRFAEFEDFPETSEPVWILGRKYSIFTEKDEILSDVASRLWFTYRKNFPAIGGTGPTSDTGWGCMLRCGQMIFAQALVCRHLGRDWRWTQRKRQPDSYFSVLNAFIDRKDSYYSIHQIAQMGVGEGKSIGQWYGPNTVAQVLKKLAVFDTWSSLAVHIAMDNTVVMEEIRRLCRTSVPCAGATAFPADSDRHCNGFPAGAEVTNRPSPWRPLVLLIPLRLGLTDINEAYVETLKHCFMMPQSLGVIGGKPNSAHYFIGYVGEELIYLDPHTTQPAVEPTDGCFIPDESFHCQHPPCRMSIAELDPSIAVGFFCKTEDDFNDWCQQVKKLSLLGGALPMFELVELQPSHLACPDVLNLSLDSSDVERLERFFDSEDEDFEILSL

Phospholipase A2 = Phospholipase A2 (Homo sapiens, UniProt P04054);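 further: confirmatory dose-response counterscreen on phospholipase A2, testing hits that came from an ultra-high-throughput screen for ATG4B inhibitors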
Chain of Phospholipase A2 (P04054 whole entry): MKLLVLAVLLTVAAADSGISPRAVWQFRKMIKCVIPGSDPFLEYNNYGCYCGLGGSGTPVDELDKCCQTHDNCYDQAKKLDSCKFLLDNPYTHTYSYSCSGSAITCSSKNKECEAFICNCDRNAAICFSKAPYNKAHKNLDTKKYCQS

Genome polyprotein = Genome polyprotein (dengue virus type 2, UniProt P29990); experiment: Dengue-2 NS5 methyltransferase inhibitors, primary screen, biochemical, confirmation dose response (AID 588689)
Melanocortin receptor 4 = Melanocortin receptor 4 (Homo sapiens, UniProt P32245); experiment: MC4R antagonist potency on cAMP, dose response, cell-based, TR-FRET, biased antagonists (AID 602298);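 further: antagonist potency against agonist-stimulated cAMP production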
Chain of Melanocortin receptor 4 (P32245 whole entry): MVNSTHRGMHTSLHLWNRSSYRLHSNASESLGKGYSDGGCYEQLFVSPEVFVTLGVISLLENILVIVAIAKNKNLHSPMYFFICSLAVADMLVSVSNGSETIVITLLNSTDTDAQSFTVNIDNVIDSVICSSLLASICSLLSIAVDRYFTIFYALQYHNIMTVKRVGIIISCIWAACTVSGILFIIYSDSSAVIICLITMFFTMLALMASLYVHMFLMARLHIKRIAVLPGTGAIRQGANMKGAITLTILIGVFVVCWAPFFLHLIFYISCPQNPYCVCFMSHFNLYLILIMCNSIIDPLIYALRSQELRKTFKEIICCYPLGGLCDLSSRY

[2] = nonselective inhibitors of cellular cAMP signaling, dose response, counter-screen for MC4R biased antagonist project, cell-based, TR-FRET cAMP detection (AID 602305);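 further: U2OS cells stimulated with forskolin near its EC80 as the cAMP inducer; potency is for inhibition of forskolin-stimulated cAMP signaling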
[3] = biological target: T4, High affinity choline transporter 1 (Homo sapiens, UniProt Q9GZV3); experiment: CHT inhibitors, dose response, cell-based, 5-point CRC, membrane potential dye (AID 504840)
T4 sequence (Q9GZV3 whole entry): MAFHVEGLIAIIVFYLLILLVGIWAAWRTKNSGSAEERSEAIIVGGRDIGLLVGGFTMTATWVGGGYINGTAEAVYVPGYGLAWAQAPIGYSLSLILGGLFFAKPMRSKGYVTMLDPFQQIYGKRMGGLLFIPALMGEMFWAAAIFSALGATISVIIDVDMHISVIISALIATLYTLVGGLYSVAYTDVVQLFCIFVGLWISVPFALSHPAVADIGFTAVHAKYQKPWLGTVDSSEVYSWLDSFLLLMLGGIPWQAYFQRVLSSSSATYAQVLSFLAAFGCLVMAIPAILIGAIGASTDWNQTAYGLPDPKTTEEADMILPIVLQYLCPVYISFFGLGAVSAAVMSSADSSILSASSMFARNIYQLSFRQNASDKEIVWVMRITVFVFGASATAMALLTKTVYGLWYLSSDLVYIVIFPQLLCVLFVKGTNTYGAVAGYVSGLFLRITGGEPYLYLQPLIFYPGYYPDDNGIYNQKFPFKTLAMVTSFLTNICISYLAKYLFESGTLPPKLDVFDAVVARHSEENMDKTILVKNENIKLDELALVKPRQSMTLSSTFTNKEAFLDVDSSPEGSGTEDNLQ

[4] = biological target: T4, High affinity choline transporter 1; experiment: CHT inhibitors, dose response, cell-based, 10-point CRC, membrane potential dye (AID 588401);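 further: membrane potential dye fluorescence of choline-evoked depolarization via CHT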
[5] = biological target: Ribosomal protein S6 kinase beta-1 (Homo sapiens, UniProt P23443);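 further: measured as one member of a kinome-wide profiling panel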
Chain of Ribosomal protein S6 kinase beta-1 (P23443 whole entry): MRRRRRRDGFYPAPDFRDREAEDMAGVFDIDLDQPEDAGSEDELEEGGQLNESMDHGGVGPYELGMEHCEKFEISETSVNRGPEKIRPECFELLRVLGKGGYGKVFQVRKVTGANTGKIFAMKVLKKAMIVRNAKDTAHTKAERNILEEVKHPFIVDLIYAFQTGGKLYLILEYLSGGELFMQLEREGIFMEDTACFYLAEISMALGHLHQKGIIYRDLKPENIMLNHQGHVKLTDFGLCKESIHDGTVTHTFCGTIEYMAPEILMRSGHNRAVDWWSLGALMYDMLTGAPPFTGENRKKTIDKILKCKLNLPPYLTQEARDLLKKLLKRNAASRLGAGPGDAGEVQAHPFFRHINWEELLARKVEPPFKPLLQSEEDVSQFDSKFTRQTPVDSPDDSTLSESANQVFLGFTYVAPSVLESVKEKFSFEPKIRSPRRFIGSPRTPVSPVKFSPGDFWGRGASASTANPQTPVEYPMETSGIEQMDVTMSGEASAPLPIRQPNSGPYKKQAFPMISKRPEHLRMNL

[6] = biological target: Proto-oncogene tyrosine-protein kinase ROS (Homo sapiens, UniProt P08922);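 further: ROS1 tested as one member of a kinome-wide kinase panel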
[7] = biological target: T5, DNA repair and recombination protein RAD54-like (Homo sapiens, UniProt Q92698); experiment: inhibitors of human RAD54 branch migration, confirmation, biochemical, fluorescence, cherry-picked samples, dose series (AID 651657)
T5 sequence (Q92698 whole entry): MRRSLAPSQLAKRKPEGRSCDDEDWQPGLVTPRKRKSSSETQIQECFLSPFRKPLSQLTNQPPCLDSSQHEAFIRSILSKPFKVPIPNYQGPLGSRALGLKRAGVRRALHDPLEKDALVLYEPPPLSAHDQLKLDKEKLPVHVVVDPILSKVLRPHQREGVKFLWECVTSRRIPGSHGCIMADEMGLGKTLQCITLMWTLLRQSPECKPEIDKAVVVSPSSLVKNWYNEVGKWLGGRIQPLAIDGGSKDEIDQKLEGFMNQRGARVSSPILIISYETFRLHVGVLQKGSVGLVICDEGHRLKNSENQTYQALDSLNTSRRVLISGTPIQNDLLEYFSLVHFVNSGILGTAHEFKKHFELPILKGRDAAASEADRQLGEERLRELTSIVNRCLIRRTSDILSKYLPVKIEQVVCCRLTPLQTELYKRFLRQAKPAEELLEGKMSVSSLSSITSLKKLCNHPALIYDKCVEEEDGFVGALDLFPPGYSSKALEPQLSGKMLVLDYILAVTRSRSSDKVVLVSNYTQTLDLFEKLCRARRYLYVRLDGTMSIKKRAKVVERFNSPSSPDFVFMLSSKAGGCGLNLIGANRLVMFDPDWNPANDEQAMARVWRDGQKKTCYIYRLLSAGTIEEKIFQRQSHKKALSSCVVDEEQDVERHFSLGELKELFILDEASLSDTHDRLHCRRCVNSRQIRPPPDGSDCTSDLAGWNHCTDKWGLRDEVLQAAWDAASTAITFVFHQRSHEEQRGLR

[8] = biological target: Ras and Rab interactor 1/Tyrosine-protein kinase ABL1 (Homo sapiens, UniProt P00519+Q13671);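 further: biochemical TR-FRET dose-response test measuring inhibition of binding between Rin1 and Abl proteins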
[9] = biological target: T6, Ubiquitin-conjugating enzyme E2 N (Homo sapiens, UniProt P61088);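 further: Dose-response confirmation in a TR-FRET assay detecting UBC13-driven polyubiquitin chain formation, inhibition measured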
T6 sequence (P61088 whole entry): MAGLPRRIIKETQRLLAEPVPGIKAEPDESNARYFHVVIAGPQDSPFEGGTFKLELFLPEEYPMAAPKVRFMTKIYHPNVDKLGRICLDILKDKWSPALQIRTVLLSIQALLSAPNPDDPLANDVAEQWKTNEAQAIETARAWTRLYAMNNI

LIM domain kinase 1 = LIM domain kinase 1 (Homo sapiens, UniProt P53667); experiment: Navigating the Kinome. Panel member name: LIMK1
Chain of LIM domain kinase 1 (P53667 whole entry, the tested form may be a part): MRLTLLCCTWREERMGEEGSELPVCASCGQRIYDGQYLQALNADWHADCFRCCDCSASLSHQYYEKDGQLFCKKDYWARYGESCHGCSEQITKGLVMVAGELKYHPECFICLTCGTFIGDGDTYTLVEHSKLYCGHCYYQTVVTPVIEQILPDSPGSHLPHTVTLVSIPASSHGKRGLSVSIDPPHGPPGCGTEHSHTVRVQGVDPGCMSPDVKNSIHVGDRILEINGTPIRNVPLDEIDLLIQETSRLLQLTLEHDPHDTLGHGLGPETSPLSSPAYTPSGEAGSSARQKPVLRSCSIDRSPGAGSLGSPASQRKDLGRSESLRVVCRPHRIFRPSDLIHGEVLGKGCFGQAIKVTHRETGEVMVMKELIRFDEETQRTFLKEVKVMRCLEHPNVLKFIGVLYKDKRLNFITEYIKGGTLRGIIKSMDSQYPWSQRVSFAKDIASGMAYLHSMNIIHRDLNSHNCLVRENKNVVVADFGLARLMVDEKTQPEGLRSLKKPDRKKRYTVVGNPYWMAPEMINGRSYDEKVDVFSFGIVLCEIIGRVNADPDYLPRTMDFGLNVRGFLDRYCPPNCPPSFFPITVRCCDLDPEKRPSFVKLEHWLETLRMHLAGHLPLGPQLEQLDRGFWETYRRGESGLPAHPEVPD

[10] = biological target: Rho-associated protein kinase 1 (Homo sapiens, UniProt Q13464);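 further: measured within a broad kinome-wide panel profiling many kinases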
Chain of Rho-associated protein kinase 1 (Q13464 whole entry): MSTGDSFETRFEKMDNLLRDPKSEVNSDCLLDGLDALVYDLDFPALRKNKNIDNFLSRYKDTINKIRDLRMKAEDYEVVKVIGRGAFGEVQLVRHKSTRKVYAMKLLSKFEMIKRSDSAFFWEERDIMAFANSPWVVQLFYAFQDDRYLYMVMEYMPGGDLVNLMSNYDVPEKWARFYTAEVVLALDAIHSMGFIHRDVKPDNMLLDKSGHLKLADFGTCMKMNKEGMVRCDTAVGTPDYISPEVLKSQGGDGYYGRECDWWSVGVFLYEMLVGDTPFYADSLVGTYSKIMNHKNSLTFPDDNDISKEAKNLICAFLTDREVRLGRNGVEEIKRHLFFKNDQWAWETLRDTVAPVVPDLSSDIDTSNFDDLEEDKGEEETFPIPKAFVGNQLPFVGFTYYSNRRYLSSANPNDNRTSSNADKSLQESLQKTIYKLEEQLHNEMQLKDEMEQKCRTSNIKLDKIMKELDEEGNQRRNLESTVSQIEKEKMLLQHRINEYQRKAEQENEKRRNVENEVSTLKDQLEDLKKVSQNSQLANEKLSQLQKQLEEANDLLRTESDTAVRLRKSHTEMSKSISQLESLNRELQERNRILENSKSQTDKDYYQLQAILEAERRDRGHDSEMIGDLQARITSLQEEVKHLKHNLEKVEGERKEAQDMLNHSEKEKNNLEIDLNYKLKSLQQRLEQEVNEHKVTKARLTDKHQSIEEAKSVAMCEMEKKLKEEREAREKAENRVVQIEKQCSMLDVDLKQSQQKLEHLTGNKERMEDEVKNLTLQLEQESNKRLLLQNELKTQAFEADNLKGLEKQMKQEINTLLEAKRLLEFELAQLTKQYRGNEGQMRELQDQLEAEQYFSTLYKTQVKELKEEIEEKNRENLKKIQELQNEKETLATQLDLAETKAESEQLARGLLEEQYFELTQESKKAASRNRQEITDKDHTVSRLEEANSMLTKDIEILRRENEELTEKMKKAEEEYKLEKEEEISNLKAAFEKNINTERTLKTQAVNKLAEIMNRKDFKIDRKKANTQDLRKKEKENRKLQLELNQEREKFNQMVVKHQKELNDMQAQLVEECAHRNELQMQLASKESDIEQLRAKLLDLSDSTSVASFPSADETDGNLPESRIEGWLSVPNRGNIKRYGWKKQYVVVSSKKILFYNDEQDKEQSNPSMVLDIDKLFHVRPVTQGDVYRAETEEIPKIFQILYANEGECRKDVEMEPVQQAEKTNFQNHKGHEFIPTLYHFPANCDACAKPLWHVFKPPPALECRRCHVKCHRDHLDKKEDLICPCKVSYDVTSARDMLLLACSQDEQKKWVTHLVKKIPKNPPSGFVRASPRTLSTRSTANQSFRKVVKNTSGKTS

[11] = biological target: Cyclin-dependent kinase 8 (Homo sapiens, UniProt P49336); experiment: Navigating the Kinome. Panel member name: CDK8
Chain of Cyclin-dependent kinase 8 (P49336 whole entry): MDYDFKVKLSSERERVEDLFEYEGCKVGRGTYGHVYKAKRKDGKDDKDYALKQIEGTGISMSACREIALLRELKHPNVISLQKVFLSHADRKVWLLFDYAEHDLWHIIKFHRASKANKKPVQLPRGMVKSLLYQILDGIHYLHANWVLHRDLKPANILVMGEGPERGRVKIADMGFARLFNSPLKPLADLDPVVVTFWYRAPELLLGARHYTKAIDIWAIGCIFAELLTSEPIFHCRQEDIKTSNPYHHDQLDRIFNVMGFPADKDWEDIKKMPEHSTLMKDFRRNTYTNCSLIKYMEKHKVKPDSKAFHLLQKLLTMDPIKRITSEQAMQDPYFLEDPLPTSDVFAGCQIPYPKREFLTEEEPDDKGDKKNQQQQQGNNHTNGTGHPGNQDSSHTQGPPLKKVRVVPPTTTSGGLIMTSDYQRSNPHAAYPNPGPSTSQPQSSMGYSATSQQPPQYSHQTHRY

[12] = biological target: Vascular endothelial growth factor receptor 1 (Homo sapiens, UniProt P17948);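 further: measured within a kinome-wide profiling panel, FLT1 as the panel member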
[13] = biological target: Cyclin-dependent kinase 9 (Homo sapiens, UniProt P50750);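 further: value from the CDK9 entry of a kinome-spanning kinase panel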
[14] = biological target: Dual specificity protein kinase CLK4 (Homo sapiens, UniProt Q9HAZ1)
Chain of Dual specificity protein kinase CLK4 (Q9HAZ1 whole entry): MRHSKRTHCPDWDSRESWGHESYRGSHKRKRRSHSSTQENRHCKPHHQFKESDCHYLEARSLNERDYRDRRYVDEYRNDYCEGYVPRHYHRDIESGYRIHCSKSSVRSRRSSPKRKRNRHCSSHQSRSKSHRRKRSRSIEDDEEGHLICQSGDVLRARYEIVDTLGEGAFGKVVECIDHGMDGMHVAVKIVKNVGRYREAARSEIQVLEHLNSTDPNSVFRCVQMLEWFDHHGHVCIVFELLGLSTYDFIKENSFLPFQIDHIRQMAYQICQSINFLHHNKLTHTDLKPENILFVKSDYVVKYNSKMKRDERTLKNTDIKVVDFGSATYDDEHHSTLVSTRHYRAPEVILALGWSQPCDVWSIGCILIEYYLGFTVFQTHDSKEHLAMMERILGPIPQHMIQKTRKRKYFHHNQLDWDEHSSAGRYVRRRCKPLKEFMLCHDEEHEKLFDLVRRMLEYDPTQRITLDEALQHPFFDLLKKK

[15] = A cytotoxicity screen of small molecule inhibitors of the PhoP region in Salmonella typhi identified in the primary screen. [Related pubchem assays: 1850, 1864, 1985 ]
HEK293 = experiment: inhibitors of LMP1-driven NF-kB reporter, dose response, cell-based, HEK293, luciferase, cherry-pick (AID 588343); conditions: Homo sapiens

In the case of `COC1=C(Br)C(=O)c2ncccc2C1=O`, the IC50 [1] is reported as > 66.6 µM (inactive), the IC50 (Beta-galactosidase) is reported as > 66.6 µM (inactive) and the IC50 (Hexokinase HKDC1) is reported as 3.56 µM (active). For the same compound, the IC50 (Cysteine protease ATG4B) was 3.53 µM (active), the IC50 (Phospholipase A2) was > 80 µM (inactive) and the IC50 (Genome polyprotein) was 3.41 µM (active).

In the case of `O=C1/C(=C/c2ccc([N+](=O)[O-])cc2)C=C(c2ccccc2)N1c1ccc(O)cc1`, the IC50 [1] is reported as > 66.6 µM (inactive), the IC50 (Beta-galactosidase) is reported as > 66.6 µM (inactive) and the IC50 (Melanocortin receptor 4) is reported as > 64.6 µM (inactive). The IC50 [2] was > 64.6 µM (inactive).

For `O=C(O)CC1=C(Nc2ccccc2)C(=O)N(c2ccccc2)C1c1ccc(Br)cc1` (stereo unspecified), the IC50 [3] was 5.55 µM (active) and the IC50 [4] was 3.98 µM (active).

In the case of `O=C(Cc1cccc2cnccc12)NCc1ccc(Br)cc1`, the Ki [5] is reported as 6.31 µM (active) and the Ki [6] is reported as 1.58 µM (active).

With `Cc1ccc2nc3c(c(Nc4ccc5c(c4)OCCO5)c2c1)CCC3` the IC50 (Cysteine protease ATG4B) was 10.7 µM (active), the IC50 (Phospholipase A2) was 7.53 µM (active) and the AC50 [7] was 54.9 µM (active).

In the case of `CN(CCc1ccccc1)C(=O)c1ccc(NC(=O)Cc2ccc(NC(=O)C3CCN(C(=O)C4CCCC4)CC3)cc2)cc1`, the IC50 [8] is reported as 1.38 µM (active).

With `CC(C)[C@H](CN1CCC[C@H]1CN1C(N)=NC[C@@H]1Cc1ccccc1)N1C[C@@H](Cc2ccccc2)N(CCc2ccc(Cl)c(Cl)c2)C1=N` the IC50 [9] was > 20 µM (inactive), the IC50 (Melanocortin receptor 4) was 7.16 µM (active) and the IC50 [2] was > 64.6 µM (inactive).

For `Cc1ccccc1-c1cccc2nccn12`, the Ki (LIM domain kinase 1) was 79.4 µM (active), the Ki [10] was 63.1 µM (active) and the Ki [11] was 12.6 µM (active). For the same compound, the Ki [12] was 15.8 µM (active), the Ki [13] was 39.8 µM (active) and the Ki [14] was 79.4 µM (active).

For `Cc1nnc(SCc2cnc(-c3ccc(C(C)C)cc3)s2)n1C`, the EC50 [15] was > 50 µM (active), the AC50 (HEK293) was 4.43 µM (active) and the IC50 [3] was 1.28 µM (active). For the same compound, the IC50 [4] was 10 µM (active).
